For orientation: pIC50 means the IC50 on a negative log10 scale, so that one unit is a factor of ten.

pIC50: −log10 of the molar value. Bridge positions count the residues as written; N and C are the ends. Square brackets hold non-standard residues; d marks the D form. Peptide text beside a SMILES is read from it. * marks the point of attachment. Phe(4-CH2CH2COOH) = N[C@@H](Cc1ccc(CCC(=O)O)cc1)C(=O)O; Phe(4-COOH) = N[C@@H](Cc1ccc(C(=O)O)cc1)C(=O)O; Bip = N[C@@H](Cc1ccc(-c2ccccc2)cc1)C(=O)O; Phe(3-Me) = Cc1cccc(C[C@H](N)C(=O)O)c1; Val(3-F) = CC(C)(F)[C@H](N)C(=O)O; Cha = N[C@@H](CC1CCCCC1)C(=O)O; Cit = NC(=O)NCCC[C@H](N)C(=O)O; Carboxymethyl = O=C(O)C*; Orn = NCCC[C@H](N)C(=O)O; Aun = NCCCCCCCCCCC(=O)O; Dab = NCC[C@H](N)C(=O)O; Piv = CC(C)(C)C(=O)*

Consider nine compounds from patent US20260022142A1, “MACROCYCLIC IMMUNOMODULATORS” (Bristol-Myers Squibb Company, priority 2022, published 2026).

T1 sequence (Q15116 25-288): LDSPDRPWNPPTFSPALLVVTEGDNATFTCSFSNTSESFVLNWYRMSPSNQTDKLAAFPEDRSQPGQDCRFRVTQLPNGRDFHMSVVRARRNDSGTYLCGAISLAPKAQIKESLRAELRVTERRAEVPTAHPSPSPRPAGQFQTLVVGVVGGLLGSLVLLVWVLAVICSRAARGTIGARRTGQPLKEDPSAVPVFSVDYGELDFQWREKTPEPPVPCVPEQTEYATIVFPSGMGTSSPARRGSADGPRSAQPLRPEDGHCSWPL

The test concerns the target T1, PD-1/PD-L1 interaction (PE-labeled human PD-L1-Ig binding to Jurkat cell line over-expressing human PD-1) (Homo sapiens, UniProt Q15116).
T1 construct: expressed in transfected cells; host or cells: Jurkat
The test can be described thus: Jurkat-PD-1 Cell Binding High-Content Screening Assay (CBA). The format is cell-based. To be noted: Jurkat cell line over-expressing human PD-1; PE-labeled PD-L1-Ig 20 nM final; read-out: Jurkat hPD1-PDL1 IC50. Summed up: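 Binding of fluorescent PD-L1-Ig (phycoerythrin on Ig tag, 20 nM final, 1 h) measured by high-content imaging of fixed, Hoechst-counterstained Jurkat-hPD-1 cells. Compound added 2 h at 37° C beforehand, in DMEM with 10% fetal calf serum.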
`Cc1cccc(C[C@@H]2NC(=O)[C@H](CC(=O)O)NC(=O)[C@H](Cc3ccc(OCC(=O)O)cc3)NC(=O)[C@H](CCCNC(=N)N)NC(=O)CSC[C@@H](C(=O)N[C@@H](CCN)C(=O)NCCCCCCCCCCC(=O)O)NC(=O)[C@H](CCC(N)=O)NC(=O)[C@H](C(C)C)NC(=O)[C@H](CC3CCCCC3)NC(=O)[C@H](CCN)NC(=O)[C@@H](CC(C)C)NC(=O)[C@H](CCCN)NC(=O)[C@H](Cc3ccc(OCC(=O)O)cc3)NC(=O)[C@H](Cc3ccc(-c4ccccc4)cc3)NC(=O)[C@H](C(C)(C)F)NC2=O)c1` [Compound 2122] ({CH2CO}-RY(Carboxymethyl)D[Phe(3-Me)][Val(3-F)][Bip]Y(Carboxymethyl)[Orn][dL][Dab][Cha]VQC[Dab][Aun]-OH; thioether N-14): the pIC50 was 7.96.

Regarding `Cc1cccc(C[C@@H]2NC(=O)[C@H](CC(=O)O)NC(=O)[C@H](Cc3ccc(OCC(=O)O)cc3)NC(=O)[C@H](CCCNC(=N)N)NC(=O)CSC[C@@H](C(=O)N[C@@H](CCN)C(=O)NCCCCCCCCCCC(=O)O)NC(=O)[C@H]([C@@H](C)O)NC(=O)[C@H](C(C)C)NC(=O)[C@H](CC3CCCCC3)NC(=O)[C@H](CCN)NC(=O)[C@@H](CC(C)C)NC(=O)[C@H](CCCN)NC(=O)[C@H](Cc3ccc(OCC(=O)O)cc3)NC(=O)[C@H](Cc3ccc(-c4ccccc4)cc3)NC(=O)[C@H](C(C)(C)F)NC2=O)c1` [Compound 2123] ({CH2CO}-RY(Carboxymethyl)D[Phe(3-Me)][Val(3-F)][Bip]Y(Carboxymethyl)[Orn][dL][Dab][Cha]VTC[Dab][Aun]-OH; thioether N-14), the pIC50 is 7.85.

`Cc1cccc(C[C@@H]2NC(=O)[C@H](CC(=O)O)NC(=O)[C@H](Cc3ccc(OCC(=O)O)cc3)NC(=O)[C@H](CCCNC(=N)N)NC(=O)CSC[C@@H](C(=O)N[C@@H](CCN)C(=O)NCCCCCCCCCCC(=O)O)NC(=O)[C@H]([C@@H](C)O)NC(=O)[C@H](C(C)C)NC(=O)[C@H](CC3CCCCC3)NC(=O)[C@H](CCN)NC(=O)[C@@H](CC(C)C)NC(=O)[C@H](CCCN)NC(=O)[C@H](CCCNC(N)=O)NC(=O)[C@H](Cc3ccc(-c4ccccc4)cc3)NC(=O)[C@H](C(C)(C)F)NC2=O)c1` [Compound 2124] ({CH2CO}-RY(Carboxymethyl)D[Phe(3-Me)][Val(3-F)][Bip][Cit][Orn][dL][Dab][Cha]VTC[Dab][Aun]-OH; thioether N-14): the pIC50 was 7.76.

`Cc1cccc(C[C@@H]2NC(=O)[C@H](CC(=O)O)NC(=O)[C@H](Cc3ccc(OCC(=O)O)cc3)NC(=O)[C@H](CCCNC(=N)N)NC(=O)CSC[C@@H](C(=O)N[C@@H](CCN)C(=O)NCCCCCCCCCCC(=O)O)NC(=O)[C@H]([C@@H](C)O)NC(=O)[C@H](C(C)C)NC(=O)[C@H](CC3CCCCC3)NC(=O)[C@H](CCN)NC(=O)[C@@H](CC(C)C)NC(=O)[C@H](CCCN)NC(=O)[C@H](Cc3ccc(O)cc3)NC(=O)[C@H](Cc3ccc(-c4ccccc4)cc3)NC(=O)[C@H](C(C)(C)F)NC2=O)c1` [Compound 2125] ({CH2CO}-RY(Carboxymethyl)D[Phe(3-Me)][Val(3-F)][Bip]Y[Orn][dL][Dab][Cha]VTC[Dab][Aun]-OH; thioether N-14): the pIC50 was 7.79.

Turning to `Cc1cccc(C[C@@H]2NC(=O)[C@H](CC(=O)O)NC(=O)[C@H](Cc3ccc(OCC(=O)O)cc3)NC(=O)[C@H](CCCNC(=N)N)NC(=O)CSC[C@@H](C(=O)N[C@@H](CCN)C(=O)NCCCCCCCCCCC(=O)O)NC(=O)[C@H]([C@@H](C)O)NC(=O)[C@H](C(C)(C)F)NC(=O)[C@H](CC3CCCCC3)NC(=O)[C@H](CCN)NC(=O)[C@@H](CC(C)C)NC(=O)[C@H](CCCN)NC(=O)[C@H](Cc3ccc(O)cc3)NC(=O)[C@H](Cc3ccc(-c4ccccc4)cc3)NC(=O)[C@H](Cc3ccc(O)cc3)NC2=O)c1` [Compound 2126] ({CH2CO}-RY(Carboxymethyl)D[Phe(3-Me)]Y[Bip]Y[Orn][dL][Dab][Cha][Val(3-F)]TC[Dab][Aun]-OH; thioether N-14), the pIC50 was 7.45.

Consider `Cc1cccc(C[C@@H]2NC(=O)[C@H](CC(=O)O)NC(=O)[C@H](Cc3ccc(OCC(=O)O)cc3)NC(=O)[C@H](CCNC(=O)C(C)(C)C)NC(=O)CSC[C@@H](C(=O)N[C@@H](CCN)C(=O)NCCCCCCCCCCC(=O)O)NC(=O)[C@H]([C@@H](C)O)NC(=O)[C@H](C(C)C)NC(=O)[C@H](CC3CCCCC3)NC(=O)[C@H](CCN)NC(=O)[C@@H](CC(C)C)NC(=O)[C@H](CCCN)NC(=O)[C@H](Cc3ccc(OCC(=O)O)cc3)NC(=O)[C@H](Cc3ccc(-c4ccccc4)cc3)NC(=O)[C@H](Cc3ccc(C(=O)O)cc3)NC2=O)c1` [Compound 2127] ({CH2CO}-[Dab](Piv)Y(Carboxymethyl)D[Phe(3-Me)][Phe(4-COOH)][Bip]Y(Carboxymethyl)[Orn][dL][Dab][Cha]VTC[Dab][Aun]-OH; thioether N-14), for which the pIC50 is 7.55.

Turning to `Cc1cccc(C[C@@H]2NC(=O)[C@H](CC(=O)O)NC(=O)[C@H](Cc3ccc(OCC(=O)O)cc3)NC(=O)[C@H](CCNC(=O)C(C)(C)C)NC(=O)CSC[C@@H](C(=O)N[C@@H](CCN)C(=O)NCCCCCCCCCCC(=O)O)NC(=O)[C@H](CCC(N)=O)NC(=O)[C@H](C(C)C)NC(=O)[C@H](CC3CCCCC3)NC(=O)[C@H](CCN)NC(=O)[C@@H](CC(C)C)NC(=O)[C@H](CCCN)NC(=O)[C@H](Cc3ccc(OCC(=O)O)cc3)NC(=O)[C@H](Cc3ccc(-c4ccccc4)cc3)NC(=O)[C@H](Cc3ccc(C(=O)O)cc3)NC2=O)c1` [Compound 2128] ({CH2CO}-[Dab](Piv)Y(Carboxymethyl)D[Phe(3-Me)][Phe(4-COOH)][Bip]Y(Carboxymethyl)[Orn][dL][Dab][Cha]VQC[Dab][Aun]-OH; thioether N-14), the pIC50 was 7.97.

`Cc1cccc(C[C@@H]2NC(=O)[C@H](CC(=O)O)NC(=O)[C@H](Cc3ccc(OCC(=O)O)cc3)NC(=O)[C@H](CCCNC(=N)N)NC(=O)CSC[C@@H](C(=O)N[C@@H](CCN)C(=O)NCCCCCCCCCCC(=O)O)NC(=O)[C@H](CCC(N)=O)NC(=O)[C@H](C(C)C)NC(=O)[C@H](CC3CCCCC3)NC(=O)[C@H](CCN)NC(=O)[C@@H](CC(C)C)NC(=O)[C@H](CCCN)NC(=O)[C@H](Cc3ccc(OCC(=O)O)cc3)NC(=O)[C@H](Cc3ccc(-c4ccccc4)cc3)NC(=O)[C@H](Cc3ccc(CCC(=O)O)cc3)NC2=O)c1` [Compound 2129] ({CH2CO}-RY(Carboxymethyl)D[Phe(3-Me)][Phe(4-CH2CH2COOH)][Bip]Y(Carboxymethyl)[Orn][dL][Dab][Cha]VQC[Dab][Aun]-OH; thioether N-14): the pIC50 is 8.22.

For `Cc1cccc(C[C@@H]2NC(=O)[C@H](CC(=O)O)NC(=O)[C@H](Cc3ccc(OCC(=O)O)cc3)NC(=O)[C@H](CCCNC(=N)N)NC(=O)CSC[C@@H](C(=O)N[C@@H](CCN)C(=O)NCCCCCCCCCCC(=O)O)NC(=O)[C@H]([C@@H](C)O)NC(=O)[C@H](C(C)C)NC(=O)[C@H](CC3CCCCC3)NC(=O)[C@H](CCN)NC(=O)[C@@H](CC(C)C)NC(=O)[C@H](CCCN)NC(=O)[C@H](Cc3ccc(O)cc3)NC(=O)[C@H](Cc3ccc(-c4ccccc4)cc3)NC(=O)[C@H](Cc3ccc(OCC(=O)O)cc3)NC2=O)c1` [Compound 2130] ({CH2CO}-RY(Carboxymethyl)D[Phe(3-Me)]Y(Carboxymethyl)[Bip]Y[Orn][dL][Dab][Cha]VTC[Dab][Aun]-OH; thioether N-14), the pIC50 was 7.80.
